Results published in patent US11834483B2, “Immunostimulatory agents in combination with angiogenesis inhibitors” (Alkermes Pharma Ireland Limited, priority 2020, dated 2023).
Read-outs that look alike come from different tables or passages of the source.

Columns and labels:
[1] = tested on: CD8+ T cells, macrophages, dendritic cells; test: Immune cells in tumors and spleens of treated mice; type: in vivo
Description: The combination therapy of the invention provides many beneficial and unexpected therapeutic effects as evidenced by mice treated with SEQ ID NO: 2, the murine surrogate for SEQ ID NO: 1.

[2] = tested on: MC38 murine colon carcinoma cells; conditions: for Median TTE: endpoint 1000 mm^3, 53 days; for Regressions CR: number of complete regressions; for Regressions PR: number of partial regressions; for Regressions TFS: tumor free survivors
[3] = tested on: CD8+T cells, NK cells, Tregs; conditions: first in human clinical data, U.S. Patent Publication Number 20210038684A1; cited from earlier work
[4] = Group 2: Lenvatinib 10 mg/kg po qd × 28 (vehicle 1 sc)
[5] = Group 2: Lenvatinib 10 mg/kg po qd × 28
[6] = Group 3: Lenvatinib 30 mg/kg po qd × 28 (vehicle 1 sc)
[7] = Group 3: Lenvatinib 30 mg/kg po qd × 28
[8] = Group 4: Lenvatinib 100 mg/kg po qd × 28 (vehicle 1 sc)
[9] = Group 4: Lenvatinib 100 mg/kg po qd × 28

Molecule | macrophages [1] | % TGD [2, 4] | T − C [2, 4] | Median TTE [2, 4] | Regressions CR [2, 5] | Regressions PR [2, 5] | Regressions TFS [2, 5] | % TGD [2, 6] | T − C [2, 6] | Median TTE [2, 6] | Regressions CR [2, 7] | Regressions PR [2, 7] | Regressions TFS [2, 7] | % TGD [2, 8] | T − C [2, 8] | Median TTE [2, 8] | Regressions CR [2, 9] | Regressions PR [2, 9] | Regressions TFS [2, 9] | expansion of CD8+T cells and NK cells versus Tregs [3]
COc1cc2nccc(Oc3ccc(NC(=O)NC4CC4)c(Cl)c3)c2cc1C(N)=O [Lenvatinib, 4-[3-Chloro-4-(cyclopropylaminocarbonyl)aminophenoxy]-7-methoxy-6-quinolinecarboxamide] | decrease in macrophages | 168% | 24.0 days | 38.3 days | 0 | 1 | 0 | 162% | 23.1 days | 37.4 days | 0 | 0 | 0 | 164% | 23.4 days | 37.7 days | 0 | 0 | 0 | 
fusion protein of SEQ ID NO: 1: circularly permuted (cp) IL-2 variant fused to the extracellular domain of the IL-2Rα portion of the IL-2 receptor (protein, Human cpIL-2IL-2R-alpha, circularly permuted (cp) IL-2 variant fused to the extracellular domain of the IL-2Rα portion of the IL-2 receptor) SKNFHLRPRDLISNINVIVLELKGSETTFMCEYADETATIVEFLNRWITFSQSIISTLTGGSSSTKKTQLQLEHLLLDLQMILNGINNYKNPKLTRMLTFKFYMPKKATELKHLQCLEEELKPLEEVLNLAQGSGGGSELCDDDPPEIPHATFKAMAYKEGTMLNCECKRGFRRIKSGSLYMLCTGNSSHSSWDNQCQCTSSATRNTTKQVTPQPEEQKERKTTEMQSPMQPVDQASLPGHCREPPPWENEATERIYHFVVGQMVYYQCVQGYRALHRGPAESVCKMTHGKTRWTQPQLICTG |  |  |  |  |  |  |  |  |  |  |  |  |  |  |  |  |  |  |  | activates expansion of CD8+T cells and NK cells in a dose dependent manner in the absence of dose dependent activation of Tregs
